Experimental data published in US9981961B2, “Deoxycytidine kinase inhibitors” (The Regents of the University of California, priority 2013, dated 2018).

Legend:
[1] = target: dCK activity in CCRF-CEM tumor xenografts (Homo sapiens, UniProt P27707)
Method: Four hours post-treatment mice were injected intravenously with 70 μCi of ^18F-L-FAC. For all mPET/CT studies, a 1 h interval was allowed between probe administration and mPET/CT scanning (Inveon, Siemens Medical Solutions USA Inc.; microCAT, Imtek Inc.). Static mPET images were acquired for 600 s. Images were analyzed using OsiriX Imaging Software Version 3.8.

[2] = tested on: NSP-produced dCTP incorporated into DNA of CEM cells; test: Stable isotope labeling of dCTP biosynthesis in CEM cells; type: cell-based, human; details: 12 hr labeling, dT treatment
[3] = tested on: NSP-produced dCTP incorporated into tumor DNA; test: [U-13C/15N]-dC incorporation into DNA of CEM tumor xenografts; type: in vivo, NSG mice; details: dCK^wt CEM tumors, dT 2 g/kg single dose, 4 hr
Method: For the in vivo studies, tumor-bearing mice were injected with 200 μL, of 2.5 mM [U-^13C/^15N]-deoxycytidine 30 min prior to sacrifice. Tumors were harvested, mechanically digested into single cells, and cell counts were obtained. DNA extraction was carried out as described above.
DNA hydrolysis samples were diluted 1/1 with solvent A (water/formic acid, 100/0.2, v/v) and analyzed using a modified version of a previously reported method (Cohen et al., 2009) in which aliquots of the solution (10 μL) were injected onto a porous graphitic carbon column (Thermo Hypercarb, 100×2.1 mm, 3 micron particle size) equilibrated in solvent A and eluted (300 μL/min) with an increasing concentration of solvent B (acetonitrile/min/% B; 0/0, 6/60, 6.1/100, 9/100, 9.1/0, 10/0). […] After verification of retention times using authentic standards, the peak areas of the MH^+→fragment ion transitions for the dC isotopomers (M0, 228.1→112.1; M1, 229.1→112.1; M2, 230.1→112.1; M3, 231.1→112.1; M4, 232.1→112.1; M5, 233.1→112.1; M6, 234.1→113.1; M7, 235.1→114.1; M8, […]; […]; M11, 239.1→118.1; and M12, 240.1→119.1) were recorded with instrument manufacturer-supplied software (Agilent MassHunter), and normalized to cell number. The dC isotopomers of M3 through M8 for the DNP and M11 through M12 for NSP were detected and used for data analysis.

[4] = Plasma thymidine level after dT injection; type: in vivo, NSG mice
Method: NOD SCID gamma (NSG) mice were injected with 2 g/kg dT intraperitoneally; 75 μL of whole blood was obtained at 0, 2, 4, and 8 hr through retro-orbital sinus bleed using hematocrit capillary tubes. Whole blood was immediately centrifuged at 3000× g for 5 min to isolate serum; 30 μL of serum was mixed with 1 mL methanol:acetonitrile (1:9), vortexed for 2 min, centrifuged at 14,000× g for 4 min at 4° C. Extraction was repeated and the pooled supernatant was dried under vacuum centrifugation. The residue was dissolved in 100 μL water, filtered and eluted through a Waters microBondapak C18 column under a gradient mobile phase from 2% methanol to 50% methanol over ten minutes at a flow rate of 1.5 mL/min.

[5] = tested on: CEM leukemic cells in bone marrow; test: Systemic T-ALL model (CEM cells injected intravenously); type: in vivo, NSG mice; details: dT 2 g/kg every 12 hr
Method: Ten μL of blood was collected via tail vein nick and mixed with 2 μL 50 mM EDTA. One μL of blood was mixed with 99 μL PBS and transferred to a 96 well OptiPlate (Perkin Elmer). One hundred μL of 20 μM coelenterazine substrate was mixed and luciferase activity was measured using a plate luminescence microplate reader SpectraMax L (Molecular Devices). Systemic tumor models were established by intravenous injection of 10^6 CEM dCK^wt-sGluc-GFP or dCK^low-sGluc-GFP in 100 μL RPMI.

[6] = tested on: dCTP and dTTP pools of CEM cells; test: Intracellular dNTP pool measurement in CEM cells; type: cell-based, human; details: 24 hr

Sequence of dCK activity in CCRF-CEM tumor xenografts (P27707 whole entry): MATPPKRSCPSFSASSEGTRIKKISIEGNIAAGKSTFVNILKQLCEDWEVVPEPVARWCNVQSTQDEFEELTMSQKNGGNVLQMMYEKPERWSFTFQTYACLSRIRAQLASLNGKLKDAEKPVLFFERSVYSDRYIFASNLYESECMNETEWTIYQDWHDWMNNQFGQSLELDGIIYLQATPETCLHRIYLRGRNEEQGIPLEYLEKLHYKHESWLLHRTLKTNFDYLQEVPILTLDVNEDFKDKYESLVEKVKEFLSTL

Question: What does the source list for `Cc1cn([C@H]2C[C@H](O)[C@@H](CO)O2)c(=O)[nH]c1=O` [dT, thymidine]?
Answer: increase of 18F-L-FAC accumulation [1]: ~20%; fold increase over baseline of utilization of NSP-produced dCTP for DNA synthesis [2]: more than 3 fold; fold increase of labeled dCTP incorporation into DNA [3]: ~3 fold; concentration at 8 hr ([4]; NOD SCID gamma (NSG), mouse, plasma, ip, at 8 hr after single injection 2 g/kg intraperitoneally, read-out: plasma dT, declined to baseline values): ~10 µM; plasma dT peak ([4]; two hours after single injection 2 g/kg intraperitoneally): 1.5 mM; fold reduction in percentage of leukemic cells in bone marrow relative to vehicle and DI-39 treated groups [5]: ~7 fold; fold increase of dTTP ([6]; 50 μM dT): ~20 fold; fold reduction of dCTP ([6]; 50 μM dT): ~5 fold; decrease of dCTP pool ([6]; DI-39 1 μM, dT 50 μM, or both): ~30%
